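All cell lines were grown in 96-well plates and treated with compound for 48 hours. Abbreviation: GI50, concentration required for 50% inhibition of growth.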 Active and inactive are the calls of the source. Rule as the data show it: active = GI50 up to about 1.1 µM and inactive = higher.

The results in this text go back to ChEMBL document CHEMBL1201862, “PubChem BioAssay data set” (2004).

Among the test systems are HOP-62; OVCAR-4; LOX IMVI; M19-MEL; Malme-3M; NCI-H460; DMS-273; RXF 393; SK-MEL-2; OVCAR-3; NCI-H522; HOP-92; HT-29; OVCAR-5; RPMI-8226; COLO 205; SF-268; IGROV-1; SW-620; SK-MEL-28.
Experiment in all cases: NCI-60 cell line screen, 48 h

`CCC(C)C1NC(=O)CNC(=O)C2Cc3c([nH]c4cc(O)ccc34)[S+]([O-])CC(NC(=O)CNC1=O)C(=O)NC(CC(=O)O)C(=O)N1CC(O)CC1C(=O)NC(C(C)C(O)CO)C(=O)N2` (stereo not given): the GI50 in the assay on HOP-62 was 0.662 µM (active); in the assay with OVCAR-4, 2.07 µM (inactive); with LOX IMVI, 2.38 µM (inactive); in the assay on M19-MEL, 3.24 µM (inactive); in the assay with Malme-3M, 1.19 µM (inactive); in the assay on NCI-H460 it was 2.11 µM (inactive). The GI50 with DMS-273 is 2.23 µM (inactive); in the assay with RXF 393, 0.579 µM (active); in the assay on SK-MEL-2 it was 2.08 µM (inactive); in the assay on OVCAR-3, 2.47 µM (inactive); in the assay on NCI-H522, 0.776 µM (active); in the assay on HOP-92, 1.68 µM (inactive). Besides, the GI50 in the assay on HT-29 was 28.8 µM (inactive); in the assay on OVCAR-5, 16.1 µM (inactive); with RPMI-8226, 20.3 µM (inactive); in the assay on COLO 205, 1.41 µM (inactive); in the assay on SF-268, 1.64 µM (inactive); with IGROV-1 it was 4.39 µM (inactive). In addition, the GI50 in the assay on SW-620 was 36.2 µM (inactive); with SK-MEL-28 it was 2.54 µM (inactive).

On to `CCOC(=O)C(C#N)(Cc1c[nH]c2ccccc12)NC(C)=O` (stereo not given), for which the GI50 in the assay on HOP-62, in the assay with OVCAR-4, in the assay with LOX IMVI, in the assay with M19-MEL, in the assay with Malme-3M and in the assay with NCI-H460 was > 100 µM (inactive) throughout. Besides, the GI50 in the assay with DMS-273, in the assay on RXF 393, in the assay with SK-MEL-2, in the assay on OVCAR-3, in the assay with NCI-H522 and in the assay with HOP-92 was > 100 µM (inactive) each time. The GI50 with HT-29, in the assay with OVCAR-5, with RPMI-8226, with COLO 205, in the assay on SF-268 and in the assay with IGROV-1 was > 100 µM (inactive) each time. For the same compound, the GI50 with SW-620 and in the assay on SK-MEL-28 was > 100 µM (inactive) throughout.

For `CN(C)CCNC(=O)c1cccc2[nH]c(-c3ccccn3)nc12`, the GI50 was 35.3 µM (inactive) in the assay with HOP-62; 27.5 µM (inactive) in the assay with OVCAR-4; 32.5 µM (inactive) in the assay on LOX IMVI; 29.7 µM (inactive) with M19-MEL; 24.9 µM (inactive) with Malme-3M; 20.8 µM (inactive) in the assay with NCI-H460. Moreover, the GI50 was 26 µM (inactive) in the assay with DMS-273; 51.2 µM (inactive) in the assay with RXF 393; 39.7 µM (inactive) in the assay on SK-MEL-2; 30.7 µM (inactive) with OVCAR-3; 25.6 µM (inactive) in the assay with NCI-H522; 19.6 µM (inactive) in the assay on HOP-92. For the same compound, the GI50 in the assay with HT-29 was 19.6 µM (inactive); in the assay with OVCAR-5 it was 38.2 µM (inactive); with RPMI-8226 it was 21.7 µM (inactive); in the assay on COLO 205, 14 µM (inactive); in the assay with SF-268 it was 28 µM (inactive); in the assay on IGROV-1 it was 35.1 µM (inactive). The GI50 in the assay on SW-620 is 24.9 µM (inactive); in the assay on SK-MEL-28, 36.6 µM (inactive).
